Drawing on patent US9540359B2, “Dihydrooxazine or oxazepine derivatives having BACE1 inhibitory activity” (Shionogi & Co., Ltd., priority 2012, dated 2017), this text covers IC50 for 23 compounds.

pIC50: −log10 of the molar value.

In one assay the test system is β-Amyloid (Aβ) production in neuroblastoma SH-SY5Y cells (SH/APPwt). Briefly: Measurement of β-amyloid (Aβ) production inhibitory effect in cell. The format is cell-based. As to conditions: Homo sapiens, amount needed to inhibit Aβ production by 50%, Amyloid β1-40 in culture supernatant, 24 hours. The method, then: Neuroblastoma SH-SY5Y cells (SH/APPwt) with human wild-type β-APP excessively expressed therein were prepared at 8×10^5 cells/mL, and 150 μl portions thereof were inoculated into each well of a 96-well culture plate (Falcon). The cells were cultured for 2 hours at 37° C. in a 5% gaseous carbon dioxide incubator. Then, a solution which have been preliminarily prepared by adding and suspending the compound of the present invention (DMSO (dimethyl sulfoxide) solution) so as to be 2 μl/50 μl medium was added to the cell sap. Namely, the final DMSO concentration was 1%, and the amount of the cell culture was 200 μl. After the incubation was performed for 24 hours from the addition of the test compound, 100 μl of the culture supernatant was collected from each fraction. The amount of the Aβ in each fraction was measured. The Aβ amount was measured as follows. 10 μl of a homogeneous time resolved fluorescence (HTRF) measurement reagent (Amyloid β1-40 peptide; CIS bio international) and 10 μl of the culture supernatant were put into a 384-well half area microplate (black microplate, Costar) and mixed with each other, and then left standing overnight at 4° C. while the light was shielded. Then, the fluorescence intensity (excitation wavelength: 337 nm, measurement wavelength: 620 nm and 665 nm) was measured with a micro plate reader (Artemis K-101; FURUNO […]). […]
The term pIC50 denotes the IC50 on a negative log10 scale, so that one unit is a factor of ten. For `N#Cc1ccc(C(=O)Nc2ccc(F)c([C@]3(C(F)(F)F)CCOC(N)=N3)c2)nc1` [Compound I-38], the pIC50 is 6.29.

The next assay deals with Recombinant human BACE1 (Homo sapiens (Human), UniProt P56817). The experiment in a line: Assay of BACE1 inhibiting activity (HTRF, substrate peptide cleavage). The format is biochemical. As to conditions: 50% inhibitory concentration against enzymatic activity; 30° C., 3.5 hours, pH 5.0; read-out: IC50 value. The method, then: 48.5 μL of substrate peptide solution (Biotin-[…]-Eu: X=ε-amino-n-capronic acid, Eu=Europium cryptate) was added to each well of 96-hole half-area plate (a black plate: Costar), and after addition of 0.5 μl of the compound of the present invention (DMSO solution) and 1 μl of Recombinant human BACE1 (R&D Systems), the reaction mixture was incubated at 30° C. for 3.5 hours. […] The final concentrations of the substrate peptide and Recombinant human BACE1 were adjusted to 18 nmol/L and 7.4 nmol/L, respectively, and the reaction was performed in sodium acetate buffer (50 mmol/L sodium acetate, pH 5.0, 0.008% Triton X-100). After the incubation for reaction, 50 μl of 8.0 μg/ml Streptavidin-XL665 (CIS bio international) dissolved in phosphate buffer (150 mmol/L K2HPO4-KH2PO4, pH 7.0, 0.008% Triton X-100, 0.8 mol/L KF) was added to each well and left stand at 30° C. for 45 minutes. After then, fluorescence intensity was measured (excitation wavelength: 320 nm, measuring wavelength: 620 nm and 665 nm) using Wallac 1420 multilabel counter (Perkin Elmer life sciences). Enzymatic activity was determined from counting ratio of each wavelength (10,000× Count 665/Count 620) and 50% inhibitory concentration against the enzymatic activity (IC50) was calculated.
Recombinant human BACE1, sequence (P56817 46-501): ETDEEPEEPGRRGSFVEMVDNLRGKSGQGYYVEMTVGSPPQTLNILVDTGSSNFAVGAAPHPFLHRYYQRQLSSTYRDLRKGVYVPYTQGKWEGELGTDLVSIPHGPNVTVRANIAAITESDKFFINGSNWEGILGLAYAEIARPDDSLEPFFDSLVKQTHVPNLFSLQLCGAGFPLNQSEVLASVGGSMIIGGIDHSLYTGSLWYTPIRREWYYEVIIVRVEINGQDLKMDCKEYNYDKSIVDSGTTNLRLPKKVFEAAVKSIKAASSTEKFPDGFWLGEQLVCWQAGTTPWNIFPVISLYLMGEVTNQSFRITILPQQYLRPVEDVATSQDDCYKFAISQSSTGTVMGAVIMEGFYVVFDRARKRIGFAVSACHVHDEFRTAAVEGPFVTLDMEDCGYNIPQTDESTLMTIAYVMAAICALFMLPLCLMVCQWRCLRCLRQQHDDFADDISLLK
(In general: In TR-FRET formats the signal depends on donor and acceptor labels being close together.)
`CC1(C)C[C@@](C)(c2cc(NC(=O)c3ccc(C#N)cn3)ccc2F)N=C(N)O1` [Compound I-1]: the pIC50 was 7.03.

`CC12OC(N)=N[C@](CF)(c3cc(NC(=O)c4ccc(C#N)cn4)ccc3F)C1O2` (some centres unmarked) [Compound I-2]: the pIC50 was 7.11.

For `Cc1cc(C#N)cnc1C(=O)Nc1ccc(F)c([C@]2(C(F)F)CCOC(N)=N2)c1` [Compound I-4], the negative-log IC50 (pIC50) is 7.04.

As to `C[C@@]1(c2cc(NC(=O)c3ccc(C#N)cn3)ccc2F)CCCOC(N)=N1` [Compound I-13], the pIC50 was 6.82.

In the case of `C#C[C@@]1(c2cc(NC(=O)c3ccc(C#N)cn3)ccc2F)CCOC(N)=N1` [Compound I-14], the pIC50 is 7.01.

As to `C#C[C@]1(c2cc(NC(=O)c3ccc(C#N)cn3)ccc2F)N=C(N)O[C@@H]2C[C@@H]21` [Compound I-21], the pIC50 is 7.18.

On to `C[C@@]1(c2cc(NC(=O)c3ccc(C#N)cn3)ccc2F)CC2(COC2)OC(N)=N1` [Compound I-56], for which the pIC50 is 7.60.

In the case of `C#C[C@]1(c2cc(NC(=O)c3cnc(OCF)cn3)ccc2F)N=C(N)O[C@@H]2COC[C@@H]21` [Compound I-72], the pIC50 was 7.87.

For `C[C@]1(c2cc(NC(=O)c3coc(C(F)F)n3)ccc2F)N=C(N)O[C@H](CF)[C@@H]1F` [Compound I-86], the pIC50 is 7.48.

On to `C[C@]1(c2cc(NC(=O)c3ccc(C#N)cn3)ccc2F)N=C(N)OC2(COC2)[C@@H]1F` [Compound I-95], for which the pIC50 was 7.68.

For `C[C@H]1OC(N)=N[C@](CF)(c2cc(NC(=O)c3ccc(C#N)cn3)ccc2F)[C@H]1CF` [Compound I-100], the pIC50 was 6.95.

The assay is the same for the next values; noted with them: bound stated for a list of compounds; 30° C., 3.5 hours, pH 5.0; read-out: IC50 values.
For the compound `Cc1cc(C#N)cnc1C(=O)Nc1ccc(F)c([C@@]2(C)N=C(N)O[C@H](CF)[C@@H]2F)c1` [Compound I-26], the pIC50 is at least 6.00.

As to `COC[C@@H]1C[C@@](CF)(c2cc(NC(=O)c3ccc(C#N)cn3)ccc2F)N=C(N)O1` [Compound I-37], the pIC50 is at least 6.00.

Take `NC1=N[C@@](c2cc(NC(=O)c3cnc(OCF)cn3)ccc2F)(C(F)F)CCCO1` [Compound I-47]: the pIC50 was at least 6.00.

As for `C#C[C@]1(c2cc(NC(=O)c3coc(C(F)F)n3)ccc2F)N=C(N)O[C@@H]2COC[C@@H]21` [Compound I-73], the pIC50 was at least 6.00.

On to `C[C@]1(c2cc(NC(=O)c3coc(CF)n3)ccc2F)N=C(N)O[C@H](CF)[C@@H]1F` [Compound I-85], for which the negative logarithm of the IC50 (pIC50) was at least 6.00.

Take `N#Cc1ccc(C(=O)Nc2ccc(F)c([C@]34CCO[C@H]3COC(N)=N4)c2)nc1` [Compound I-108]: the pIC50 is at least 6.00.

Consider `N#Cc1ccc(C(=O)Nc2ccc(F)c([C@]34CCO[C@H]3[C@@H](CF)OC(N)=N4)c2)nc1` [Compound I-110], for which the pIC50 was at least 6.00.

Turning to `NC1=N[C@@]2(c3cc(NC(=O)c4cnc(OCF)cn4)ccc3F)CCO[C@H]2[C@@H](CF)O1` [Compound I-111], the pIC50 is at least 6.00.

As to `CO[C@H]1[C@@H](C(F)F)OC(N)=N[C@]1(C)c1cc(NC(=O)c2ccc(C#N)cn2)ccc1F` [Compound I-116], the pIC50 was at least 6.00.

Regarding `CO[C@H]1[C@@H](C(F)F)OC(N)=N[C@]1(C)c1cc(NC(=O)c2cnc(OCF)cn2)ccc1F` [Compound I-118], the pIC50 was at least 6.00.

For the compound `CO[C@H]1[C@@H](C(F)F)OC(N)=N[C@]1(C)c1cc(NC(=O)c2ccc(F)cn2)ccc1F` [Compound I-119], the pIC50 is at least 6.00.
